From patent US20190119200A1, “TERTIARY AMIDES AND METHOD OF USE” (AbbVie Inc., priority 2016, published 2019)
pIC50: −log10 of the molar value.

Tests used:
[1] = target: T1, LPAR1 (Homo sapiens, UniProt Q92633); experiment: IP-One HTRF Assay; type: cell-based; settings: U2OS cells stably expressing LPAR1, LPA stimulation, IP-One Tb HTRF kit; for Emax: read-out: Maximum Inhibition
T1 construct: host or cells: U2OS
Procedure, shortened: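 U2OS cells stably expressing LPAR1 were preincubated with compound (11-point 3-fold series from 2 mM DMSO stock) for 20 min at 37 °C, then stimulated with LPA for 2 h at 37 °C. IP1 accumulation was read by IP-One HTRF (665/615 nm ratio). IC50 came from four-parameter logistic Hill fits.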

[2] = system: UUO mice (kidney fibrosis); experiment: Mouse unilateral ureteral obstruction (UUO) kidney fibrosis model; type: in vivo; settings: male CD-1 mice, 30 mg/kg po twice daily D-1 to D6, compared to vehicle treated UUO group
Procedure: All animal handling and experimental protocols were approved by AbbVie's Institutional Animal Care and Use Committee (IACUC) and were conducted in accordance with the ethical principles for pain-related animal research of the American Pain Society. Male CD-1 mice (28-30 g, Charles River) were group housed 10 per cage, housed in a temperature controlled room with a 12/12-hour day/night cycle, with food (2018 Tekland Global 18% protein rodent diet, Harlan®) and water available ad libitum. Mice underwent either complete unilateral ureter obstruction (UUO) or sham surgery to the left kidney. Briefly, animals were anesthetized with isoflurane, and the left ureter was visualized via a flank incision. Using 6-0 silk sutures, the ureter was tied off at two points near the renal pelvis and then completely cut between ligations (ligation step omitted for sham operated animals). The abdominal muscle was sutured and the skin closed using standard wound clips. Test compound or vehicle was delivered twice daily (30 mg/kg, po) via oral gavage, starting on the day before surgery (D-1) and continuing through day 6 after surgery (D6), at which time animals were sacrificed and kidney tissues collected. […] Statistical significance was determined by using a one-way analysis of variance (ANOVA) followed by a Bonferroni post-hoc test and was conducted using GraphPad prism.

[3] = target: T1, LPAR1; experiment: LPAR1 FLIPR Assay; type: cell-based; settings: U2OS cells stably expressing LPAR1, LPA (EC80), Calcium 6 FLIPR dye; for Emax: read-out: Maximum Inhibition
Procedure, shortened: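 U2OS cells stably expressing LPAR1 were loaded with Calcium 6 dye for 2 h at 37° C, preincubated 3 min with compound (11-point 3-fold series), then stimulated with LPA at EC80. Fluorescence at 515-575 nm was recorded by FLIPR; IC50 came from four-parameter logistic fits of ratio data.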

T1 sequence (Q92633 whole entry): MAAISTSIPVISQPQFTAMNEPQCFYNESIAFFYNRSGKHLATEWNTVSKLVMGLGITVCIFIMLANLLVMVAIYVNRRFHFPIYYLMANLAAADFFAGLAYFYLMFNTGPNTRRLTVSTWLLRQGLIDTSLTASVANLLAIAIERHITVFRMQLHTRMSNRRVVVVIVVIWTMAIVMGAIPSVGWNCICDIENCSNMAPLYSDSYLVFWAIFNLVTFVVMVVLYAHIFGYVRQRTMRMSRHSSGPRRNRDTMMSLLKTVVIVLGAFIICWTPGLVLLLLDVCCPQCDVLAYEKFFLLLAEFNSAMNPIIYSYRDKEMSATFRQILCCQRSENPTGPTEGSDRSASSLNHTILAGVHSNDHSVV

For `COc1cc(OC)cc(C(=O)N(CCCCC(=O)O)CCCc2ccccc2)c1` [Example 7, 5-[(3,5-dimethoxybenzoyl)(3-phenylpropyl)amino]pentanoic Acid], the pIC50 [1] was 5.76, the Emax [1] was 75% and the “reduction in Col1a1 expression” value [2] was −46%. The “reduction in tubulointerstitial fibrosis as measured by PSR” value [2] was −53%, the pIC50 [3] was 7.49 and the Emax [3] was 82%.
For `COc1cc(C(=O)N(CCCc2cccc(F)c2)CCSCC(=O)O)cc(OC)c1C` [Example 117, [(2-{(3,5-dimethoxy-4-methylbenzoyl)[3-(3-fluorophenyl)propyl]amino}ethyl)sulfanyl]acetic Acid], the pIC50 [1] was 6.33, the Emax [1] was 85% and the pIC50 [3] was 8.00. The Emax [3] was 93%.
Compound `COc1cc(C(=O)N(CCCc2ccccc2)CCCC(C)(O)C(=O)O)cc(OC)c1C` (stereo not shown) [Example 155, 5-[(3,5-dimethoxy-4-methylbenzoyl)(3-phenylpropyl)amino]-2-hydroxy-2-methylpentanoic Acid] has a pIC50 [1] of 6.18, an Emax [1] of 83% and a pIC50 [3] of 7.57. For the same compound, the Emax [3] was 90%.
With `COc1ccc(C2(C(=O)N(CCCCC(=O)O)CCCc3ccccc3)CC2)cc1` [Example 8, 5-{[1-(4-methoxyphenyl)cyclopropane-1-carbonyl](3-phenylpropyl)amino}pentanoic Acid] the pIC50 [1] was 5.65, the Emax [1] was 84% and the pIC50 [3] was 7.77. The Emax [3] was 86%.
Work on `COc1cc(C(=O)N(CCCc2ccccc2F)CCSCC(=O)O)cc(OC)c1C` [Example 116, [(2-{(3,5-dimethoxy-4-methylbenzoyl)[3-(2-fluorophenyl)propyl]amino}ethyl)sulfanyl]acetic Acid] yielded a pIC50 [1] of 6.46, an Emax [1] of 81% and a pIC50 [3] of 7.70. For the same compound, the Emax [3] was 88%.
`COc1cc(C(=O)N(CCCCC(=O)O)CCCc2ccccc2)cc(OC)c1C(F)(F)F` [Example 37, 5-{[3,5-dimethoxy-4-(trifluoromethyl)benzoyl](3-phenylpropyl)amino}pentanoic Acid] showed a pIC50 [1] of 7.16, an Emax [1] of 79% and a pIC50 [3] of 7.49. For the same compound, the Emax [3] was 96%.
Compound `COc1cc(C(=O)N(CCCCC(=O)O)CCCc2ccccc2)cc(OC)c1OC` [Example 10, 5-[(3-phenylpropyl)(3,4,5-trimethoxybenzoyl)amino]pentanoic Acid] has a pIC50 [1] of 6.48, an Emax [1] of 77% and a pIC50 [3] of 7.19. For the same compound, the Emax [3] was 92%.
With `COc1cc(C(=O)N(CCCCC(=O)O)CCCc2ccc(Cl)o2)cc(OC)c1C` [Example 185, 5-{[3-(5-chlorofuran-2-yl)propyl](3,5-dimethoxy-4-methylbenzoyl)amino}pentanoic Acid] the pIC50 [1] was 6.49, the Emax [1] was 73% and the pIC50 [3] was 7.89. It also gave an Emax [3] of 91%.
